In patent US4904764A, “4-diazo-3-methyl-2,5-cyclohexadine-1-one and pharmacetically acceptable salts thereof” (E. R. Squibb & Sons, Inc., priority 1985, dated 1990):
≈ marks a conversion by molar mass, not a printed value.

Tests used:
[1] = test system: Bacteroides fragilis SC11085; assay: Agar dilution assay, anaerobic bacteria (MIC); assay type: cell-based; details: B. fragilis SC11085, DST agar, 10^5 CFU, 37° C., 18 hours, anaerobic chamber
[2] = test system: Clostridium perfringens SC11256; assay: microbe, parasite or virus in culture; assay type: cell-based; details: SC11256, 18 h
[3] = test system: Staphylococcus aureus SC1276; assay: Agar dilution assay, aerobic test organisms (MIC); details: SC1276, 18 h
[4] = test system: Streptococcus faecalis SC9011; assay: Agar dilution assay, aerobic test organisms (MIC); details: Enterococcus faecalis, SC9011, 18 h
[5] = test system: Bacteroides fragilis SC10277; assay: Agar dilution assay, anaerobic bacteria (MIC); assay type: cell-based; details: B. fragilis SC10277, DST agar, 10^5 CFU, 37° C., 18 hours, anaerobic chamber
[6] = test system: Clostridium septicum SC1780; assay: Agar dilution assay, anaerobic bacteria (MIC); assay type: cell-based; details: SC1780, 18 h
Procedure: The susceptibility of a number of anaerobic bacteria was also determined by an agar dilution technique. Test organisms were prepared from 24-48 hour cultures grown in Chopped Meat Broth (Scott Laboratories, Fiskeville, R.I.) or from washings from chocolate agar slants. These slants were prepared by adding hemoglobin to Proteose #3 Agar (Difco) to a concentration of one percent. The growth was washed off the slants with Brain Heart Infusion Broth (BBL Microbiology Systems) and diluted to a density of 10^8 CFU/ml. The subject compound was dissolved in the appropriate diluent at a concentration of 1000 μg/ml.
The agar dilution assays yielded the following results: […]

[7] = test system: Bacteroides fragilis SC9844; assay: Agar dilution assay, anaerobic bacteria (MIC); assay type: cell-based; details: B. fragilis SC9844, DST agar, 10^5 CFU, 37° C., 18 hours, anaerobic chamber
Shigella sonnei SC8449 = assay: Agar dilution assay, aerobic test organisms (MIC); assay type: cell-based; details: S. sonnei SC8449, K-10 agar, 10^4 CFU, 37° C., 18 hours, protected from light
[8] = test system: Klebsiella aerogenes SC10440; assay: Agar dilution assay, aerobic test organisms (MIC); details: SC10440, 18 h
[9] = test system: Pseudomonas aeruginosa SC8333; assay: Agar dilution assay, aerobic test organisms (MIC); details: SC8333, 18 h
[10] = test system: gram positive and gram negative bacteria; assay: Antibacterial activity (general statement); assay type: cell-based
[11] = test system: Salmonella typhosa SC1195; assay: Agar dilution assay, aerobic test organisms (MIC); details: Salmonella enterica, 18 h
[12] = test system: Staphylococcus aureus SC2399; assay: Agar dilution assay, aerobic test organisms (MIC); details: SC2399, 18 h
[13] = test system: Bacteroides thetaiotamicron SC10278; assay: Agar dilution assay, anaerobic bacteria (MIC); assay type: cell-based; details: B. thetaiotamicron SC10278, DST agar, 10^5 CFU, 37° C., 18 hours, anaerobic chamber
[14] = test system: Pseudomonas anaerobius SC11263; assay: Agar dilution assay, anaerobic bacteria (MIC); assay type: cell-based; details: DST agar, 10^5 CFU, 37° C., 18 hours, anaerobic chamber
Escherichia coli SC8294 = assay: Agar dilution assay, aerobic test organisms (MIC); details: SC8294, 18 h
[15] = test system: Fusobacterium necrophorum SC10338; assay: Agar dilution assay, anaerobic bacteria (MIC); assay type: cell-based; details: F. necrophorum SC10338, DST agar, 10^5 CFU, 37° C., 18 hours, anaerobic chamber
[16] = test system: Hemophilus vaginalis SC8568; assay: Agar dilution assay, anaerobic bacteria (MIC); assay type: cell-based; details: Gardnerella vaginalis; H. vaginalis SC8568; DST agar, 10^5 CFU, 37° C., 18 hours, anaerobic chamber
[17] = Photolability (half-life); assay type: physicochemical; details: exposure to light; read-out: photolabile, half-life
[18] = test system: Clostridium difficile SC11251; assay: Agar dilution assay, anaerobic bacteria (MIC); assay type: cell-based; details: Clostridioides difficile; C. difficile SC11251; DST agar, 10^5 CFU, 37° C., 18 hours, anaerobic chamber
[19] = test system: Bacteroides thetaiotamicron SC9005; assay: Agar dilution assay, anaerobic bacteria (MIC); assay type: cell-based; details: B. thetaiotamicron SC9005, DST agar, 10^5 CFU, 37° C., 18 hours, anaerobic chamber
[20] = test system: Escherichia colid SC10909; assay: Agar dilution assay, aerobic test organisms (MIC); details: SC10909, 18 h
[21] = test system: Staphylococcus aureus SC2400; assay: Agar dilution assay, aerobic test organisms (MIC); details: SC2400, 18 h
[22] = test system: Klebsiella pneumoniae SC9527; assay: Agar dilution assay, aerobic test organisms (MIC); details: SC9527, 18 h
[23] = test system: Streptococcus agalactiae SC9287; assay: Agar dilution assay, aerobic test organisms (MIC); details: SC9287, 18 h
Escherichia coli SC10896 = assay: Agar dilution assay, aerobic test organisms (MIC); details: SC10896, 18 h
[24] = test system: Enterobacter cloacae SC8236; assay: Agar dilution assay, aerobic test organisms (MIC); details: SC8236, 18 h
[25] = test system: Hemophilus vaginalis SC9640; assay: Agar dilution assay, anaerobic bacteria (MIC); assay type: cell-based; details: Gardnerella vaginalis; H. vaginalis SC9640; DST agar, 10^5 CFU, 37° C., 18 hours, anaerobic chamber
Proteus mirabilis SC3855 = assay: Agar dilution assay, aerobic test organisms (MIC); details: SC3855, 18 h

Compound: COC1=CC(=O)C=CC1=[N+]=[N-]
- MIC [1]: 0.2 µg/mL (≈ 1.33 µM)
- MIC [2]: 0.2 µg/mL (≈ 1.33 µM)
- MIC [3]: 2.5 µg/mL (≈ 16.7 µM)
- MIC [4]: 6.3 µg/mL (≈ 42 µM)
- MIC [5]: 0.4 µg/mL (≈ 2.66 µM)
- MIC [6]: < 0.05 µg/mL
- MIC [7]: 0.4 µg/mL (≈ 2.66 µM)
- MIC (Shigella sonnei SC8449): 1.6 µg/mL (≈ 10.7 µM)
- MIC [8]: 12.5 µg/mL (≈ 83.3 µM)
- MIC [9]: 25 µg/mL (≈ 167 µM)
- activity against bacteria [10]: activity against a variety of gram positive and gram negative bacteria, particularly against anaerobic bacteria
- MIC [11]: 1.6 µg/mL (≈ 10.7 µM)
- MIC [12]: 12.5 µg/mL (≈ 83.3 µM)
- MIC [13]: 0.4 µg/mL (≈ 2.66 µM)
- MIC [14]: < 0.05 µg/mL
- MIC (Escherichia coli SC8294): 3.1 µg/mL (≈ 20.6 µM)
- MIC [15]: < 0.05 µg/mL
- MIC [16]: 0.2 µg/mL (≈ 1.33 µM)
- half-life [17]: < 2 h
- MIC [18]: 0.4 µg/mL (≈ 2.66 µM)
- MIC [19]: 0.4 µg/mL (≈ 2.66 µM)
- MIC [20]: 3.1 µg/mL (≈ 20.6 µM)
- MIC [21]: 12.5 µg/mL (≈ 83.3 µM)
- MIC [22]: 25 µg/mL (≈ 167 µM)
- MIC [23]: 6.3 µg/mL (≈ 42 µM)
- MIC (Escherichia coli SC10896): 6.3 µg/mL (≈ 42 µM)
- MIC [24]: 50 µg/mL (≈ 333 µM)
- MIC [25]: 0.4 µg/mL (≈ 2.66 µM)
- MIC (Proteus mirabilis SC3855): 3.1 µg/mL (≈ 20.6 µM)
